The values below come from ChEMBL document CHEMBL1201862, “PubChem BioAssay data set” (2004).

Structures are written as SMILES.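 Five concentrations, 48 hours, 96-well plates. GI50 marks 50% less growth.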 The source made the active and inactive calls. Cut-off read from the data, not from the text of the source: active = GI50 up to about 1.1 µM and inactive = higher. Some results are limits rather than exact numbers.

What all share (assay): NCI-60 cell line screen, 48 h
For assay [1], the system named is COLO 205.
For assay [2], the system named is EKVX.
Assay [3] deals with HCC 2998.
Assay [4] relates to HCT-116.
For assay [5], the system named is IGROV-1.
For assay [6], the system named is MCF7.
The subject of assay [7] is MDA-MB-435.
Assay [8] relates to NCI-H23.
Assay [9] relates to NCI-H460.
For assay [10], the system named is NCI-H522.
In assay [11] the test system is NCI/ADR-RES.
For assay [12], the system named is OVCAR-3.
Assay [13] relates to RPMI-8226.
For assay [14], the system named is SF-295.
The test system of assay [15] is SK-MEL-5.
In assay [16] the test system is SR.
Assay [17] deals with TK-10.
Assay [18] has as its system HL-60.
Assay [19] has as its system CAKI-1.

Turning to `COC(=O)/C=C\n1c(C)cc(=O)[nH]c1=O`, the GI50 in assay [1] was > 100 µM (inactive); in assay [2] it was > 100 µM (inactive); in assay [3], > 100 µM (inactive); in [4], > 100 µM (inactive); in assay [5] it was > 100 µM (inactive); in assay [6] it was 17.1 µM (inactive). Also, the GI50 in [7], in assay [8], in assay [9], in assay [10], in assay [11] and in [12] was > 100 µM (inactive) throughout. Further, the GI50 in assay [13], in [14], in [15], in assay [16] and in assay [17] was > 100 µM (inactive) throughout.
As for `Cc1cc(C23OC4COC(C)(C)OC4C2OC(C)(C)O3)nc2ccccc12` (centres undefined), the GI50 in [1] was > 100 µM (inactive); in assay [2] it was > 100 µM (inactive); in [3], > 100 µM (inactive); in assay [4] it was > 100 µM (inactive); in assay [18], 33.4 µM (inactive); in assay [5] it was 31.3 µM (inactive). For the same molecule, the GI50 in assay [6], in assay [7], in assay [8], in [9], in assay [10] and in assay [11] was > 100 µM (inactive) in each case. The GI50 in assay [12] was > 100 µM (inactive); in assay [13], > 100 µM (inactive); in [14], > 100 µM (inactive); in assay [15], > 100 µM (inactive); in assay [16], 72.8 µM (inactive); in assay [17], > 100 µM (inactive).
For the molecule `CCOC(=O)[C@@H]1CCN2CN(c3ccc(OC)cc3)N=C(c3ccccc3)[C@@]12c1ccccc1`, the GI50 in assay [19] was 29.6 µM (inactive); in [1] it was 21.4 µM (inactive); in assay [2], 29.4 µM (inactive); in assay [3], 26.2 µM (inactive); in assay [4] it was 16.7 µM (inactive); in assay [18] it was 6.7 µM (inactive). For the same molecule, the GI50 in [5] is 21.3 µM (inactive); in assay [6], 20.7 µM (inactive); in assay [7], 26.5 µM (inactive); in assay [8], 24.1 µM (inactive); in assay [9] it was 27.8 µM (inactive); in assay [10], 17.5 µM (inactive). The GI50 in assay [11] was 28.3 µM (inactive); in [13], 14.1 µM (inactive); in assay [14], 25.8 µM (inactive); in assay [15], 13.2 µM (inactive); in assay [16], 23.7 µM (inactive); in [17] it was 29.3 µM (inactive).
For the molecule `COC(=O)/C=C/c1cc(O)c2c(c1)[C@H](C(=O)OC)[C@@H](c1ccc(O)c(O)c1)O2`, the GI50 in assay [19] is 0.544 µM (active); in assay [1] it was 11.5 µM (inactive); in assay [2], 8.67 µM (inactive); in [3], 19.2 µM (inactive); in assay [4] it was 0.0499 µM (active); in [5], 0.221 µM (active). The GI50 in assay [6] was 0.108 µM (active); in [7], < 0.01 µM (active); in [8], 0.342 µM (active); in assay [9] it was 2.56 µM (inactive); in [10], 0.0706 µM (active); in [11] it was 0.158 µM (active). Besides, the GI50 was 0.0339 µM (active) in assay [12]; 0.0618 µM (active) in assay [13]; 0.476 µM (active) in assay [14]; 0.0335 µM (active) in assay [15]; 0.0316 µM (active) in assay [16]; 24.7 µM (inactive) in assay [17].
In the case of `Cc1cc2c(cc1Cl)SC(NNCCO)=NS2(=O)=O`, the GI50 in assay [19], in [1], in assay [2], in assay [3], in assay [4] and in assay [18] was > 100 µM (inactive) throughout. Also, the GI50 in [5], in assay [6], in assay [7], in [8], in assay [9] and in [11] was > 100 µM (inactive) each time. The GI50 was > 100 µM (inactive) in [13]; > 100 µM (inactive) in assay [14]; 73.1 µM (inactive) in [15]; > 100 µM (inactive) in assay [16]; > 100 µM (inactive) in assay [17].
Regarding `Oc1ccc(/C=N/NC(=S)Nc2cccnc2)nc1`, the GI50 is 20.7 µM (inactive) in assay [19]; 3.98 µM (inactive) in assay [1]; 12.6 µM (inactive) in assay [2]; > 51.1 µM (inactive) in assay [3]; 4.49 µM (inactive) in [4]; 3.76 µM (inactive) in assay [18]. The GI50 in [5] is 14.7 µM (inactive); in [6], 7.89 µM (inactive); in assay [7] it was 5.9 µM (inactive); in assay [8] it was 8.15 µM (inactive); in [10], 1.97 µM (inactive); in [11], 2.46 µM (inactive). Moreover, the GI50 is 1.07 µM (active) in assay [12]; 16.7 µM (inactive) in assay [13]; 19.9 µM (inactive) in assay [14]; 9.59 µM (inactive) in assay [15]; 0.134 µM (active) in assay [16].
Take `Cn1c2ccccc2c(=O)c2cccc(C(=O)NC(CCC(N)=O)C(=O)O)c21` (centres undefined): the GI50 in assay [19] was > 100 µM (inactive); in [1], > 100 µM (inactive); in [2], > 100 µM (inactive); in assay [3], > 100 µM (inactive); in assay [4], > 100 µM (inactive); in assay [18], 0.0585 µM (active). Also, the GI50 in assay [5] was > 100 µM (inactive); in assay [6] it was > 100 µM (inactive); in assay [7], > 100 µM (inactive); in [8] it was > 100 µM (inactive); in [9], > 100 µM (inactive); in [11] it was 60.3 µM (inactive). Further, the GI50 in assay [12] was > 100 µM (inactive); in assay [13], > 100 µM (inactive); in [14] it was > 100 µM (inactive); in assay [15], > 100 µM (inactive); in assay [16], 62.1 µM (inactive); in [17], > 100 µM (inactive).
`CO[C@H]1C[C@@H]2CC[C@@H](C)[C@@](O)(O2)C(=O)C(=O)N2CCCC[C@H]2C(=O)O[C@H]([C@H](C)C[C@@H]2CC[C@@H](OC(=O)C(C)(CO)CO)[C@H](OC)C2)CC(=O)[C@H](C)/C=C(\C)[C@@H](O)[C@@H](OC)C(=O)[C@H](C)C[C@H](C)/C=C/C=C/C=C/1C` [TEMSIROLIMUS]: the GI50 in [19] is 0.0142 µM (active); in assay [1] it was 3.98 µM (inactive); in [2], 0.0185 µM (active); in assay [3], 1.82 µM (inactive); in assay [4] it was 3.26 µM (inactive); in [18] it was 2.72 µM (inactive). Further, the GI50 in [6] was 0.00538 µM (active); in assay [7], 0.0243 µM (active); in assay [8], 0.00501 µM (active); in assay [9], 0.0678 µM (active); in [10], 0.0802 µM (active); in assay [11], 0.0881 µM (active). In addition, the GI50 in [12] is 0.00183 µM (active); in [13], 0.000292 µM (active); in assay [14], 0.000557 µM (active); in assay [15] it was 0.0792 µM (active); in assay [16] it was 0.000361 µM (active); in assay [17], 0.00262 µM (active).
Take `O=c1[nH]nc(-c2ccccc2)n1-n1cnnc1`: the GI50 in [19], in [1], in assay [2], in assay [3], in assay [4] and in [5] was > 100 µM (inactive) in each case. Moreover, the GI50 in assay [6], in assay [7], in assay [8], in assay [9], in [10] and in assay [11] was > 100 µM (inactive) in each case. Also, the GI50 in assay [12], in [13], in [14], in assay [15], in [16] and in [17] was > 100 µM (inactive) throughout.
With `N=C(N)NS(=O)(=O)c1ccc(N/N=C2/CCOC2=O)cc1`, the GI50 in [19], in assay [1], in assay [2], in [3], in assay [4] and in assay [18] was > 100 µM (inactive) each time. Further, the GI50 in assay [5], in assay [6], in assay [7], in assay [8], in [9] and in assay [11] was > 100 µM (inactive) each time. Moreover, the GI50 in [12] was > 100 µM (inactive); in [13], > 100 µM (inactive); in assay [14], 49.7 µM (inactive); in assay [15], > 100 µM (inactive); in assay [16] it was 70.6 µM (inactive); in [17] it was > 100 µM (inactive).
Consider `CN(C)C(=N)/N=C(\N)Nc1cccc(Cl)c1`, for which the GI50 was 48.2 µM (inactive) in assay [19]; 20 µM (inactive) in assay [1]; > 100 µM (inactive) in assay [2]; > 100 µM (inactive) in [3]; 85.7 µM (inactive) in assay [4]; 24.5 µM (inactive) in assay [5]. Besides, the GI50 in [6] was 90.8 µM (inactive); in assay [7] it was > 100 µM (inactive); in [8] it was > 100 µM (inactive); in assay [9], 91.6 µM (inactive); in [11], > 100 µM (inactive); in assay [12] it was > 100 µM (inactive). The GI50 in [13] was > 100 µM (inactive); in assay [14], 84.1 µM (inactive); in assay [15], 28.1 µM (inactive); in assay [16], 53.2 µM (inactive); in [17] it was > 100 µM (inactive).
